One assay relates to MCF-7. Put plainly: Tumor cell proliferation inhibition (CellTiter-Meiluncell Luminescent Cell Viability Assay). Type of assay: cell-based. The conditions noted are these: Homo sapiens, 96 hours, Table I-2, ALK inhibitors. The essentials:
(§1)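 Following overnight seeding, tumor cells received serial compound dilutions to final levels that included 10 nM and 500 nM. Viability was assessed by luminescence at the end of the specified exposure time. Cultures were kept at 37°C with 5% CO2.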

The subject of the next assay is MM.1S. The assay is described as above. Type of assay: cell-based. The conditions noted are these: Homo sapiens, MM1.S, MM.1S, 96 hours; for inhibition at 0.01 µM: 10 nM, read-out: Inhibition Rate at 10 nM (%); for inhibition at 0.5 µM: 500 nM, read-out: Inhibition Rate at 500 nM (%). The gist of the method: as §1
For a further assay, the target named is T1, ALK (Homo sapiens, UniProt Q96SW2+Q9HC35+Q9UM73).
T1 construct: endogenous in cells; host or cells: H2228
Put plainly: Western blot, target protein degradation in H2228 Cell. Type of assay: cell-based. Particulars: substrate protein remaining %, treated at 500 nM and 50 nM, 24 hours. As for the experimental part:
(§2) Conventional Western blot assay was performed to evaluate the effects of the compounds of the present disclosure on the expression of target proteins in cells.
(§3) (1) Cell Seeding and Protein Harvesting: The selected cells were processed according to the cell seeding procedure and protein harvesting procedure in Table II-2. Table II-2 Cell Seeding and Protein Harvesting Procedures
(§4) (2) To the collected supernatant, 5X SDS sample loading buffer was added, followed by denaturation at 95°C for 5 minutes. The denatured samples were then separated by SDS-PAGE electrophoresis on a polyacrylamide gel. Proteins were transferred to a nitrocellulose membrane (0.45 µm NC membrane), blocked with blocking buffer at room temperature for 1 hour, and subjected to antibody incubation and development procedures according to the antibody manufacturer's instructions (Cell Signaling Technology).
(§5) Half-Maximal Degradation Concentration value (the drug concentration required for degrading proteins by 50%, abbreviated as DC50) reads method: comparing the grayscale values of Western blot bands from drug-treated samples with those from blank DMSO-treated controls, and identifying the drug concentration range at which the grayscale value is half that of the DMSO-treated control bands.
(§6) DC50 values can be calculated using ImageJ software to measure grayscale values of Western blot bands from drug-treated samples. The concentration-response curve is fitted to estimate the drug concentration corresponding to half the grayscale value.
(§7) Target protein remaining (%) refers to the percentage of target protein remaining in cells after treatment with protein degrader compounds.
(§8) Calculation method for target protein remaining (%): Use ImageJ software to measure grayscale values of Western blot bands from drug (protein degrader)-treated samples. The grayscale value of drug-treated bands is divided by that of internal control protein bands, and the resulting quotient is normalized to obtain the relative percentage of remaining target protein after protein degrader treatment. Target protein degradation rate(%) = 1−target protein remaining(%). [formula]

Assay [1] has as its target T2, human Cereblon WT GST-tagged protein (Homo sapiens, UniProt Q96SW2).
T2 construct: purchased CISBIO 64BDCRBNPEH
Briefly: CRBN-binding affinity, HTRF (CEREBLON BINDING kit). The conditions noted are these: for inhibition at 0.5 µM: read-out: Inhibition Rate at 0.5 µM (%); for inhibition at 2 µM: read-out: Inhibition Rate at 2 µM (%). The gist of the method:
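Binding to GST-tagged Cereblon was probed by HTRF tracer displacement (thalidomide-red acceptor, anti-GST Eu donor), with compounds present at final 2 µM and 0.5 µM.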

The test system of another assay is MV-4-11. Put plainly: Tumor cell proliferation inhibition (CellTiter-Meiluncell Luminescent Cell Viability Assay). It counts as cell-based. Particulars: Homo sapiens, 96 hours; for inhibition at 0.01 µM: MV4-11, 10 nM, read-out: Inhibition Rate at 10 nM (%); for inhibition at 0.5 µM: MV4-11, 500 nM, read-out: Inhibition Rate at 500 nM (%). The essentials:
as §1

Another assay concerns the target T3, CDK9 (Homo sapiens, UniProt P50750).
T3 construct: endogenous in cells; host or cells: MDA-MB-231
Put plainly: Western blot, target protein degradation in MDA-MB-231 Cell. Type of assay: cell-based. Particulars: substrate protein remaining %, treated at 500 nM and 50 nM, 24 hours. As for the experimental part: as §2, §3, §4, §5, §6, §7, §8
(A western blot detects proteins with antibodies after separation by electrophoresis.)

The subject of a further assay is H1975. Put plainly: Tumor cell proliferation inhibition (CellTiter-Meiluncell Luminescent Cell Viability Assay). Type of assay: cell-based. Particulars: Homo sapiens, 96 hours, Table I-3, EGFR inhibitors; for inhibition at 0.01 µM: NCI-H1975, 10 nM, read-out: Inhibition Rate at 10 nM (%); for inhibition at 0.5 µM: NCI-H1975, 500 nM, read-out: Inhibition Rate at 500 nM (%). The gist of the method:
as §1

A further assay has as its system RPMI-8226. Described as above. It counts as cell-based. Particulars: Homo sapiens, 96 hours, Table I-3, EGFR inhibitors. The essentials: as §1
For another assay, the system named is SW620. The assay is described as above. The conditions noted are these: Homo sapiens, 96 hours, Table I-3, EGFR inhibitors. Type of assay: cell-based. The essentials:
as §1

Like-named read-outs stand apart in the source and are kept apart here.

T2 sequence (Q96SW2 whole entry): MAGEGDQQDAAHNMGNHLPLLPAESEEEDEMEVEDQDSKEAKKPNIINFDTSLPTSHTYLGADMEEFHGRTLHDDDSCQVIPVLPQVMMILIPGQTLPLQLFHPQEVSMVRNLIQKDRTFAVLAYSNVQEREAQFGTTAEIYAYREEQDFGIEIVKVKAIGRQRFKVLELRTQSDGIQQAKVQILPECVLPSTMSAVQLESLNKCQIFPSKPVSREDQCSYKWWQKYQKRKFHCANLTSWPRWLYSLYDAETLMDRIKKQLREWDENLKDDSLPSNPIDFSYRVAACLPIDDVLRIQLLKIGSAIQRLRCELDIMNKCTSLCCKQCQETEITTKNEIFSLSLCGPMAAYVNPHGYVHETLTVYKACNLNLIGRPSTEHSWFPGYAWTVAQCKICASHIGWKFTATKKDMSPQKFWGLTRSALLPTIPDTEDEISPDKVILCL
T3 sequence (P50750 whole entry): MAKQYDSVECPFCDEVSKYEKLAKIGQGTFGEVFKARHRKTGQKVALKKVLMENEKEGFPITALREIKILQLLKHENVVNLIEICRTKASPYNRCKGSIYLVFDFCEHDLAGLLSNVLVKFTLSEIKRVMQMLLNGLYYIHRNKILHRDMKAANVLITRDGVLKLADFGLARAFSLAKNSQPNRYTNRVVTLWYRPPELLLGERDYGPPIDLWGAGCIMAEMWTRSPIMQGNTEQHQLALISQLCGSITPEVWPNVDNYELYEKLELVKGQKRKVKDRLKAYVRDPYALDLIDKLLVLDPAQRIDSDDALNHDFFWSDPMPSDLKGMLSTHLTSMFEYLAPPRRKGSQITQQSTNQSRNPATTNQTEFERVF
T1 sequence (Q9HC35+Q9UM73 fused): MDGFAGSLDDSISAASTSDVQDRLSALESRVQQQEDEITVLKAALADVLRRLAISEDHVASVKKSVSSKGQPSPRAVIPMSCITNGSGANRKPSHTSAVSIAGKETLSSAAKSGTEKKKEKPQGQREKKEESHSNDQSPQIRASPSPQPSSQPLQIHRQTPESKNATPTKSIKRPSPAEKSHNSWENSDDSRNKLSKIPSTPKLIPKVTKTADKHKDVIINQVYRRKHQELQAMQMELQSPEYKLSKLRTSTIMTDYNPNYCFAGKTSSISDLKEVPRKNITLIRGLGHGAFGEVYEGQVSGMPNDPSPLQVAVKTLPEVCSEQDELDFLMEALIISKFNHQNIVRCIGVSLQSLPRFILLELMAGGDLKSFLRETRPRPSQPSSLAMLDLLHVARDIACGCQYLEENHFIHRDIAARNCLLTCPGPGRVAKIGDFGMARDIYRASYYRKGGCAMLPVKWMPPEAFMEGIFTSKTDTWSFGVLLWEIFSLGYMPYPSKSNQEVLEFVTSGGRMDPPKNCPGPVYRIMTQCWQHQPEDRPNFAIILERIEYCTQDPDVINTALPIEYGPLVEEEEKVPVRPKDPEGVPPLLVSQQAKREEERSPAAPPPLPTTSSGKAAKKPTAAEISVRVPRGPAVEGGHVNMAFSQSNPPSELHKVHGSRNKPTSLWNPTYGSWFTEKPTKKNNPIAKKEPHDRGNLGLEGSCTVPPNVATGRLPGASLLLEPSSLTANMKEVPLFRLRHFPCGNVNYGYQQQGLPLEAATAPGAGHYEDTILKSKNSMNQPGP
T1 sequence (Q96SW2 whole entry): as the sequence (Q96SW2 whole entry) above
T1 sequence (Q16531 whole entry partner): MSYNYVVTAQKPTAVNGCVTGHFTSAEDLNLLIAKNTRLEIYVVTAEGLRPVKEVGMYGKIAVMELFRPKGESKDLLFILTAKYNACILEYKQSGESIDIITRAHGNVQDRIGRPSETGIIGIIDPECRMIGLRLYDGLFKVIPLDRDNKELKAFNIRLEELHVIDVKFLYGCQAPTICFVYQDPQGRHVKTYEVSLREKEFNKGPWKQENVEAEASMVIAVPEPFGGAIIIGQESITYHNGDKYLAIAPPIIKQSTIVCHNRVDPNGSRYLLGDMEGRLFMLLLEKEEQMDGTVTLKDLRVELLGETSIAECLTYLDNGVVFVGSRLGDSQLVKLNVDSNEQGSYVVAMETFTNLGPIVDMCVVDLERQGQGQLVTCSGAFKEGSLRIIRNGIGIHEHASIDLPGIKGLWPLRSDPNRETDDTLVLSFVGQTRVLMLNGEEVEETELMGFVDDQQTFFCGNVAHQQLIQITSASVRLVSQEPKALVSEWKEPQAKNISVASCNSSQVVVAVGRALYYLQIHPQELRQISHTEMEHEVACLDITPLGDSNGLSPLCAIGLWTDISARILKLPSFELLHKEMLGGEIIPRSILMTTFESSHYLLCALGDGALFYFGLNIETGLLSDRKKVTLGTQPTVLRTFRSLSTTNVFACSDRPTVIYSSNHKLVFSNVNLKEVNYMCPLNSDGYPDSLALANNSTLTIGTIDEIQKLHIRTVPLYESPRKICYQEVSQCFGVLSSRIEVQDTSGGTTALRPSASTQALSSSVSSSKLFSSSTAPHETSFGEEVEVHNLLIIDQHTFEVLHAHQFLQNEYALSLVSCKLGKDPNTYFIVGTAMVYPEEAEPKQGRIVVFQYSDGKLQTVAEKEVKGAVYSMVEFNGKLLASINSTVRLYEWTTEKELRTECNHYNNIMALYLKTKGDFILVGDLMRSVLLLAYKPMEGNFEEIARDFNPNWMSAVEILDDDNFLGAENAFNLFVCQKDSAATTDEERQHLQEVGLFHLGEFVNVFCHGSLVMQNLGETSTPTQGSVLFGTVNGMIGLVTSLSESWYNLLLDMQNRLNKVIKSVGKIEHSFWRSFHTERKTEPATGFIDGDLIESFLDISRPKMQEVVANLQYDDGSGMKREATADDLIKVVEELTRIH

As to `Cc1cc(Nc2ncc(Cl)c(Nc3ccccc3S(=O)(=O)C(C)C)n2)c(OC(C)C)cc1C1CCN(Cc2ccc3c(c2)C(=S)N(C2CCC(=O)NC2=O)C3)CC1` (stereo not shown) [GT-08678, 3-(6-((4-(4-((5-chloro-4-((2-(isopropylsulfonyl)pheny 1)amino)pyrimidin-2-yl)amino)-5-isopropoxy-2-methylphenyl)piperidin-1-yl)methyl)-1-thioxoisoindolin-2-yl)piperidine-2,6-dione], the inhibition at 0.01 µM in the assay with MCF-7 (MCF7, 10 nM, read-out: Inhibition Rate at 10 nM (%)) was -20 to -10%; in the assay with MM.1S (Table I-2, ALK inhibitors), 0 to 10%. Moreover, the inhibition at 0.5 µM in the assay on MCF-7 (MCF7, 500 nM, read-out: Inhibition Rate at 500 nM (%)) lay within 40 to 50%; in the assay with MM.1S (Table I-2, ALK inhibitors), 50 to 60%; in [1] it was 40 to 53%. Also, the “Degradation of substrate protein ALK” value at ALK is recorded as “A (0% ≤ substrate protein remaining % ≤ 80%)”. Also, the inhibition at 2 µM in [1] was 60 to 80%.
In the case of `COc1cc(N2CCC(N(C)Cc3ccc4c(c3)C(=S)N(C3CCC(=O)NC3=O)C4)CC2)ccc1Nc1ncc(Cl)c(Nc2ccccc2P(C)(C)=O)n1` (stereo not shown) [GT-08680, 3-(6-(((1-(4-((5-chloro-4-((2-(dimethylphosphoryl)phenyl)amino)pyrimidin-2-yl)amino)-3-methoxyphenyl)piperidin-4-yl)(methyl)amino)methyl)-1-thioxoisoindolin-2-yl)piperidine-2,6-dione], in the assay on MM.1S (Table I-2, ALK inhibitors), the inhibition at 0.01 µM was in the range of 0 to 10% and the inhibition at 0.5 µM lay in the range of 50 to 60%. In addition, in the assay on MV-4-11 (Table I-2, ALK inhibitors), the inhibition at 0.01 µM fell in the range of 10 to 20% and the inhibition at 0.5 µM lay in the range of 60 to 70%. Also, the “Degradation of substrate protein ALK” value on ALK is “A (0% ≤ substrate protein remaining % ≤ 80%)”. In assay [1], the inhibition at 0.5 µM is 60 to 80% and the inhibition at 2 µM is 80 to 100%.
Turning to `Cn1ncc(-c2nc(NC3CCN(Cc4ccc5c(c4)CN(C4CCC(=O)NC4=O)C5=S)CC3)ncc2Cl)c1CC1CC1` (stereo not shown) [GT-08682, 3-(5-((4-((5-chloro-4-(5-(cyclopropylmethyl)-1-methyl-1H-pyrazol-4-yl)pyrimidin-2-yl)amino)piperidin-1-yl)methyl)-1-thioxoisoindolin-2-yl)piperidine-2,6-dione], the inhibition at 0.01 µM in the assay on MM.1S (Table I-7, CDK9 inhibitors) was 10 to 20%; in the assay with MV-4-11 (Table I-7, CDK9 inhibitors), 30 to 40%. In addition, the inhibition at 0.5 µM in the assay on MM.1S (Table I-7, CDK9 inhibitors) lay within 50 to 60%; with MV-4-11 (Table I-7, CDK9 inhibitors) it was 60 to 70%; in [1], 60 to 80%. In addition, the “Degradation of substrate protein CDK9” value at CDK9 is “A (0% ≤ substrate protein remaining % ≤ 80%)”. Also, in assay [1], the inhibition at 2 µM lay within 80 to 100%.
In the case of `Cn1ncc(-c2nc(NC3CCN(Cc4cccc5c4CN(C4CCC(=O)NC4=O)C5=S)CC3)ncc2Cl)c1CC1CC1` (stereo not shown) [GT-08686, 3-(4-((4-((5-chloro-4-(5-(cyclopropylmethyl)-1-methyl-1H-pyrazol-4-yl)pyrimidin-2-yl)amino)piperidin-1-yl)methyl)-1-thioxoisoindolin-2-yl)piperidine-2,6-dione], in the assay with MM.1S (Table I-7, CDK9 inhibitors), the inhibition at 0.01 µM lay within 0 to 5% and the inhibition at 0.5 µM is 80 to 100%. In the assay on MV-4-11 (Table I-7, CDK9 inhibitors), the inhibition at 0.01 µM is 50 to 60% and the inhibition at 0.5 µM is 80 to 100%. For the same compound, the “Degradation of substrate protein CDK9” value on CDK9 is given as “A (0% ≤ substrate protein remaining % ≤ 80%)”. In assay [1], the inhibition at 0.5 µM lay in the range of 53 to 60% and the inhibition at 2 µM lay in the range of 80 to 100%.
For the compound `N#CC1(CNc2cccc(-c3cc(NC4CCN(Cc5ccc6c(c5)C(=S)N(C5CCC(=O)NC5=O)C6)CC4)ncc3Cl)n2)CCOCC1` (stereo not shown) [GT-08752, 4-(((5'-chloro-2'-((1-((2-(2,6-dioxopiperidin-3-yl)-3-thioxoisoindolin-5-yl)methyl)piperidin-4-yl)amino)-[2,4'-bipyridin]-6-yl)amino)methyl)tetrahy dro-2H-pyran-4-carbonitrile], in the assay on MV-4-11 (Table I-7, CDK9 inhibitors), the inhibition at 0.01 µM lay in the range of 10 to 20% and the inhibition at 0.5 µM lay in the range of 70 to 80%. Further, on CDK9, the “Degradation of substrate protein CDK9” value is “A (0% ≤ substrate protein remaining % ≤ 80%)”. Also, in [1], the inhibition at 0.5 µM was in the range of 53 to 60% and the inhibition at 2 µM lay within 80 to 100%.
For the compound `O=C1CCC(N2Cc3cc(CN4C[C@H]5C[C@@H]4CN5c4ccc(-c5cc(F)c6c(c5)C(=O)N(C(C(=O)Nc5nccs5)c5ncn7c5CCC7)C6)cc4)ccc3C2=S)C(=O)N1` (stereo partly drawn) [GT-08757, 2-(6,7-dihydro-5H-pyrrolo[1,2-c]imidazol-1-yl)-2-(6-(4-((1R,4R)-5-((2-(2,6-dioxopiperidin-3-yl)-1-thioxoisoindolin-5-yl)methyl)-2,5-diazabicyclo[2.2.1]heptan-2-yl)phenyl)-4-fluoro-1-oxoisoindolin-2-yl)-N-(thiazol-2-vl)acetamide], in the assay with H1975, the inhibition at 0.01 µM was in the range of 20 to 30% and the inhibition at 0.5 µM is 50 to 60%. Besides, in assay [1], the inhibition at 0.5 µM was 53 to 60% and the inhibition at 2 µM fell in the range of 60 to 80%.
In the same order, the values of `O=C1CCC(N2Cc3c(CN4C[C@H]5C[C@@H]4CN5c4ccc(-c5cc(F)c6c(c5)C(=O)N(C(C(=O)Nc5nccs5)c5ncn7c5CCC7)C6)cc4)cccc3C2=S)C(=O)N1` (stereo partly drawn) [GT-08760, 2-(6,7-dihydro-5H-pyrrolo[1,2-c]imidazol-1-yl)-2-(6-(4-((1R,4R)-5-((2-(2,6-dioxopiperidin-3-yl)-1-thioxoisoindolin-4-yl)methyl)-2,5-diazabicyclo[2.2.1]heptan-2-yl)phenyl)-4-fluoro-1-oxoisoindolin-2-yl)-N-(thiazol-2-yl)acetamide] are 20 to 30%, 50 to 60%, 30 to 40% and 53 to 60%.
`C#Cc1cccc(Nc2ncnc3cc(OCCOC)c(OCCOC)cc23)c1` [erlotinib, Erlotinib, reference compound]: the inhibition at 0.01 µM in the assay with H1975 is 0 to 5%; with MV-4-11 (Table I-3, EGFR inhibitors) it was 0 to 5%; in the assay on RPMI-8226 (10 nM, read-out: Inhibition Rate at 10 nM (%)), 20 to 30%; with SW620 (SW-620, 10 nM, read-out: Inhibition Rate at 10 nM (%)) it was 10 to 20%. The inhibition at 0.5 µM in the assay with H1975 fell in the range of 0 to 5%; in the assay with MV-4-11 (Table I-3, EGFR inhibitors), 10 to 20%; with RPMI-8226 (500 nM, read-out: Inhibition Rate at 500 nM (%)), 20 to 30%; in the assay on SW620 (SW-620, 500 nM, read-out: Inhibition Rate at 500 nM (%)) it was 10 to 20%.

As usually defined, the inhibition is the relative decrease from the control value, in per cent.

Source of the values: EP4745138A1, “THIO-GLUTARIMIDO ISOINDOLINONE DERIVATIVE, BIFUNCTIONAL PROTEIN DEGRADER CONTAINING SAME, AND USES THEREOF” (Gluetacs Therapeutics (Shanghai) Co., Ltd., priority 2023, dated 2025).
